The subject of the assay is 242566-281-R-J2-PDC complex spheroid viability. Nature of the assay: Anticancer human tumor 242566-281-R-J2-PDC patient-derived pancreatic carcinoma cell line growth inhibition [RAS]. As to conditions: for viability, T/C: stronger effect = lower value. The method in brief: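 Tumour cells grown as complex spheroids with HUVEC endothelial cells and mesenchymal stem cells, treated with RAS pathway inhibitor combinations. Each agent spans half-log steps from near clinical Cmax, or 10 microM where Cmax is unknown.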

The record followed here is PubChem BioAssay AID2060910 (Molecular Pharmacology Branch, DTP, NCI, 2025).

Where only a bound is given, the exact number is not on record here.
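Note: spheroids exposed to compound for 7 days before readout.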
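Throughout, for viability, T/C: 100% = DMSO vehicle control wells.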

As for `CC(Nc1ccc2c(c1)OCCn1cc(N3C(=O)OCC3C(F)F)nc1-2)C(N)=O` (stereo unspecified) + CCn1c(-c2cccnc2C(C)OC)c2c3cc(ccc31)N1CCOC(CC(NC(=O)C(C(C)C)N(C)C(=O)C3(F)CCN(C(=O)C#CC(C)(C)N(C)C)CC3)C(=O)N3CCCC(N3)C(=O)OCC(C)(C)C2)C1, the IC50 (as a rule, the midpoint of a concentration-inhibition curve) is 918 nM (curve of first compound, second compound 0.000949 µM); 1110 nM (curve of first compound, second compound 0.003 µM); 1050 nM (curve of first compound, second compound 0.00949 µM); 963 nM (curve of first compound, second compound 0.03 µM); 872 nM (curve of first compound, second compound 0.0949 µM); 329 nM (curve of first compound, second compound 0.3 µM). Moreover, the viability, T/C (as a rule, the ratio of treated to control) is 108% (second compound 0.000949 µM, first compound 0.0316 µM); 81.6% (second compound 0.000949 µM, first compound 0.1 µM); 54.7% (second compound 0.000949 µM, first compound 0.316 µM); 55% (second compound 0.000949 µM, first compound 1 µM); 36.5% (second compound 0.000949 µM, first compound 3.16 µM); 17.4% (second compound 0.000949 µM, first compound 10 µM). Further, the viability, T/C reads like this: (second compound 0.003 µM, first compound 0.0316 µM) 91.4%; (second compound 0.003 µM, first compound 0.1 µM) 79.4%; (second compound 0.003 µM, first compound 0.316 µM) 64.8%; (second compound 0.003 µM, first compound 1 µM) 51.2%; (second compound 0.003 µM, first compound 3.16 µM) 37.7%; (second compound 0.003 µM, first compound 10 µM) 18.1%. In addition, the viability, T/C reads like this: (second compound 0.00949 µM, first compound 0.0316 µM) 101%; (second compound 0.00949 µM, first compound 0.1 µM) 79.8%; (second compound 0.00949 µM, first compound 0.316 µM) 70%; (second compound 0.00949 µM, first compound 1 µM) 54%; (second compound 0.00949 µM, first compound 3.16 µM) 29.9%; (second compound 0.00949 µM, first compound 10 µM) 20.8%. Moreover, the viability, T/C is 85.4% (second compound 0.03 µM, first compound 0.0316 µM); 83% (second compound 0.03 µM, first compound 0.1 µM); 68.8% (second compound 0.03 µM, first compound 0.316 µM); 52.3% (second compound 0.03 µM, first compound 1 µM); 26.3% (second compound 0.03 µM, first compound 3.16 µM); 22.9% (second compound 0.03 µM, first compound 10 µM). The viability, T/C runs as follows: (second compound 0.0949 µM, first compound 0.0316 µM) 88.8%; (second compound 0.0949 µM, first compound 0.1 µM) 77.9%; (second compound 0.0949 µM, first compound 0.316 µM) 69.9%; (second compound 0.0949 µM, first compound 1 µM) 48.6%; (second compound 0.0949 µM, first compound 3.16 µM) 25.5%; (second compound 0.0949 µM, first compound 10 µM) 17.7%. The viability, T/C reads like this: (second compound 0.3 µM, first compound 0.0316 µM) 77.5%; (second compound 0.3 µM, first compound 0.1 µM) 67.5%; (second compound 0.3 µM, first compound 0.316 µM) 50.4%; (second compound 0.3 µM, first compound 1 µM) 33.1%; (second compound 0.3 µM, first compound 3.16 µM) 22.7%; (second compound 0.3 µM, first compound 10 µM) 16.2%.

As for `CCn1c(-c2cccnc2C(C)OC)c2c3cc(ccc31)N1CCOC(CC(NC(=O)C(C(C)C)N(C)C(=O)C3(F)CCN(C(=O)C#CC(C)(C)N(C)C)CC3)C(=O)N3CCCC(N3)C(=O)OCC(C)(C)C2)C1` (stereo unspecified), the viability, T/C runs as follows: (compound 0.000949 µM) 93.4% [middle of 8 runs]; (compound 0.003 µM) 108% [middle of 8 runs]; (compound 0.00949 µM) 104% [middle of 8 runs]; (compound 0.03 µM) 109% [middle of 8 runs]; (compound 0.0949 µM) 98.3% [middle of 8 runs]; (compound 0.3 µM) 87.6% [middle of 8 runs]. Under “compound alone, run of 07/09/2024”, the IC50 is > 300 nM.

With `CCc1c2c(nc3ccc(O)cc13)-c1cc3c(c(=O)n1C2)COC(=O)[C@]3(O)CC`, the viability, T/C (compound 0.003 µM) was 97% [middle of 4 runs]; the viability, T/C (compound 0.00949 µM) was 76% [middle of 4 runs]; the viability, T/C (compound 0.03 µM) was 49% [middle of 4 runs]; the viability, T/C (compound 0.0949 µM) is 24.7% [middle of 4 runs]; the viability, T/C (compound 0.3 µM) is 12.9% [middle of 4 runs]. In addition, the IC50 (curve of compound) was 30.9 nM [middle of 4 runs].

Turning to `CCN1CCN(Cc2ccc(Nc3ncc(F)c(-c4cc(F)c5nc(C)n(C(C)C)c5c4)n3)nc2)CC1`, the viability, T/C (compound 0.00316 µM) was 102% [middle of 4 runs]; the viability, T/C (compound 0.0316 µM) was 102% [middle of 4 runs]; the viability, T/C (compound 0.1 µM) was 99.1% [middle of 4 runs]. For the same compound, the IC50 (curve of compound) is > 1000 nM.

For the compound `CC1(C)CCC(Nc2ncc(C(F)(F)F)c(-c3c[nH]c4c(P(C)(C)=O)c(C#N)ccc34)n2)CN1` (stereo unspecified), the viability, T/C (compound 0.03 µM) is 110% [middle of 4 runs]. Moreover, under “curve of compound”, the IC50 was > 300 nM.
